Laboratory results reported in patent publication US6569878B1, “Substituted 4-amino-thiazol-2-yl compounds as cyclin-dependent kinase inhibitors” (Agouron Pharmaceuticals Inc., priority 1997, dated 2003).
pIC50, pKi: −log10 of the molar value. Where a name gives a salt, the structure may show the parent alone.

Key:
[1] = target: T1, complex of human CDK4 and cyclin D3 (Homo sapiens, UniProt P11802); experiment: Inhibition of CDK4/cyclin D retinoblastoma kinase activity (D-type cyclin is D3); format: biochemical; conditions: superscript a: D-type cyclin is D3; apparent Ki; read-out: Ki CDK 4/D
T1 construct: made in house; host or cells: insect cells, co-infected with baculovirus
How it was run: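 Radiometric assay: [32P]- or [33P]ATP phosphate incorporation into Rb substrate at 30°C for 20 min, stopped with EDTA, filter-captured and phosphorimaged.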

CDK2/cyclin A = target: T2, CDK2/cyclin A (Homo sapiens, UniProt P24941); experiment: Inhibition of CDK2/cyclin A retinoblastoma kinase activity; format: biochemical; conditions: read-out: Ki CDK 2/A
T2 construct: made in house; host or cells: CDK2: insect cells (baculovirus); cyclin A: E. coli, then limited proteolysis
How it was run: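 Baculovirus-expressed CDK2 with excess proteolyzed cyclin A (or purified complex), 150 nM or 5 nM, phosphorylating an Rb fragment with 25 μM [32/33P]ATP, pH 7.4, 30° C, 20 min. Filter-captured radioactivity by phosphorimager; apparent Ki from fits to competitive or tight-binding competitive inhibition using measured ATP Km.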

[2] = target: T3, human CDK1 (cdc2) and cyclin B (Homo sapiens, UniProt P06493); experiment: Inhibition of CDK1(cdc2)/cyclin B histone H1 kinase activity; format: biochemical; conditions: read-out: Ki CDK 1/B
T3 construct: purchased New England Biolabs (Beverly Mass.)
Experimental: Cyclin-dependent kinase activity was measured by quantifying the enzyme-catalyzed, time-dependent incorporation of radioactive phosphate from [^32P]ATP or [^33P]ATP into a protein substrate. Unless noted otherwise, assays were performed in 96-well plates in a total volume of 50 μL, in the presence of 10 mM HEPES (N-[2-hydroxyethyl]piperazine-N′-[2-ethanesulfonic acid]) (pH 7.4), 10 mM MgCl2, 25 μM adenosine triphosphate (ATP), 1 mg/mL ovalbumin, 5 μg/mL leupeptin, 1 mM dithiothreitol, 10 mM β-glycerophosphate, 0.1 mM sodium vanadate, 1 mM sodium fluoride, 2.5 mM ethylene glycol-bis(β-aminoethyl ether)-N,N,N′N′-tetraacetic acid (EGTA), 2% (v/v) dimethylsulfoxide, and 0.03-0.4 μCi [^32/33P]ATP per reaction. Reactions were initiated with enzyme, incubated at 30° C., and terminated after 20 minutes by the addition of ethylenediaminetetraacetic acid (EDTA) to 250 mM. The phosphorylated substrate was then captured on a nitrocellulose or phosphocellulose membrane using a 96-well filtration manifold, and unincorporated radioactivity was removed by repeated washing with 0.85% phosphoric acid. Radioactivity was quantified by exposing the dried membranes to a phosphorimager.
Apparent Ki values were measured by assaying enzyme activity in the presence of different inhibitor compound concentrations and subtracting the background radioactivity measured in the absence of enzyme. The kinetic parameters (kcat, Km for ATP) were measured for each enzyme under the usual assay conditions by determining the dependence of initial rates on ATP concentration. Inhibition data were fit to an equation for competitive inhibition using Kaleidagraph (Synergy Software), or were fit to an equation for competitive tight-binding inhibition using the software KineTic (BioKin, Ltd.).
The complex of human CDK1 (cdc2) and cyclin B was purchased from New England Biolabs (Beverly Mass.). Alternatively, a CDK1/glutathione-S-transferase-cyclin B1 complex was purified using glutathione affinity chromatography from insect cells that had been co-infected with the corresponding baculovirus expression vectors. The assay was executed as described above at 30° C. using 2.5 units of cdc2/cyclin B, 10 μg Histone H1 protein, and 0.1-0.3 μCi [^32/33P]ATP per assay. Phosphorylated histone substrate was captured by microfiltration on a phosphocellulose P81 membrane and quantified using a phosphorimager as described above. Ki values were measured using the described curve-fitting programs.

HCT116 = experiment: Inhibition of cell growth, MTT assay, HCT116; format: cell-based, human; conditions: Homo sapiens, HCT-116
Experimental: (§1) The water-insoluble purple formazan product was then detected spectrophotometrically. […] Plates were incubated for four hours before addition of inhibitor compounds. Different concentrations of inhibitor compounds were added in 0.5% (v/v) dimethylsulfoxide (15 μL/well), and cells were incubated at 37° C. (5% CO2) for four to six days (depending on cell type). At the end of the incubation, MTT was added to a final concentration of 0.2 mg/mL, and cells were incubated for 4 hours more at 37° C. After centrifugation of the plates and removal of medium, the absorbance of the formazan (solubilized in dimethylsulfoxide) was measured at 540 nm.

U2-OS = experiment: Inhibition of cell growth, MTT assay, U2-OS; format: cell-based; conditions: for pIC50 / IC90: Homo sapiens, U2OS
Experimental: as §1

Saos-2 = experiment: Inhibition of cell growth, MTT assay, Saos-2; format: cell-based; conditions: Saos-2, MTT assay; for pIC50 / IC90: Homo sapiens
Experimental: as §1

T3 sequence (P06493 whole entry): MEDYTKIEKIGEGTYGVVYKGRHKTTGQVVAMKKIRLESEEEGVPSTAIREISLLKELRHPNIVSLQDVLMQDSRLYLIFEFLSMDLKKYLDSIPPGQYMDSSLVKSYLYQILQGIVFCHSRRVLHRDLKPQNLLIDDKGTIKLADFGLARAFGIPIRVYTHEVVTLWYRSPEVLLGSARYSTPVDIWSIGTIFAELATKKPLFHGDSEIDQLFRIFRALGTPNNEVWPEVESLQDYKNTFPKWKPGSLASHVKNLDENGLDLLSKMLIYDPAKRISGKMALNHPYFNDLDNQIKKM
T3 sequence (P14635 whole entry partner): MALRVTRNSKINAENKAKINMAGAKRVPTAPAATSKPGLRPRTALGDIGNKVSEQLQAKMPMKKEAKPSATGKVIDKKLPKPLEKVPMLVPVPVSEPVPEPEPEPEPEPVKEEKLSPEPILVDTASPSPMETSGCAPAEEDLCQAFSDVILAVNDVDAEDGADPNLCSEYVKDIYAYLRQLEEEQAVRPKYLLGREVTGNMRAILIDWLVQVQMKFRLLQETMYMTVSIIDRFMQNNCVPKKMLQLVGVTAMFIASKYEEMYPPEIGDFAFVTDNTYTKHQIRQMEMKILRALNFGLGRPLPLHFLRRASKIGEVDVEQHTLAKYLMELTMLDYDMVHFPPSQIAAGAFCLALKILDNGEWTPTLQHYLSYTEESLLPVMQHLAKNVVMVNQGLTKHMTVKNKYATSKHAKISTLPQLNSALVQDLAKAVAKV
T1 sequence (P11802 whole entry): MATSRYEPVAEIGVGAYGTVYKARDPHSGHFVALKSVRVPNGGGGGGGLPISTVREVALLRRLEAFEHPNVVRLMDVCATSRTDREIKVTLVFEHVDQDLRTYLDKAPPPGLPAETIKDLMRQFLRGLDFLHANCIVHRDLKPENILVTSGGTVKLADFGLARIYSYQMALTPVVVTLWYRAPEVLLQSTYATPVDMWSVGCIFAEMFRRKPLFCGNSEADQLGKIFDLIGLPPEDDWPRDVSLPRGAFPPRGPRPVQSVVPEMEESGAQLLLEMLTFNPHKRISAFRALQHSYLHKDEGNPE
T1 sequence (P30281 whole entry partner): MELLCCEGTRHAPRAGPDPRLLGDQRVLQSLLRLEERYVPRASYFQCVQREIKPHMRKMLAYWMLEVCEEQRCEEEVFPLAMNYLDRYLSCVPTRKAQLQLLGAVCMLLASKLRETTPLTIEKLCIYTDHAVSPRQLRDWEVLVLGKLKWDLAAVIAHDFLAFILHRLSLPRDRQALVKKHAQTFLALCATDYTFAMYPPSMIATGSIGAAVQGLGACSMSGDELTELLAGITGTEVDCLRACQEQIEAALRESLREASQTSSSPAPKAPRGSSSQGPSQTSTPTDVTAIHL

Row | pKi [1] | pKi (CDK2/cyclin A) | pKi [2] | pIC50 (HCT116) | IC90 (HCT116) | pIC50 (U2-OS) | IC90 (U2-OS) | SMILES | pIC50 (Saos-2) | IC90 (Saos-2) | % inhibition of growth in parentheses after >25 (U2-OS; concentration not given) | % inhibition of growth in parentheses after >25 (Saos-2; concentration not given)
1 | 7.82 | 5.96 | 5.88 | 5.19 | 17000 nM | 4.85 | 22000 nM | CC(=O)Nc1ccc(Cl)c(C(=O)c2sc(Nc3ccc(N4CCN(C)CC4)cc3)nc2N)c1Cl [C(86), N-(3-{4-Amino-2-[4-(4-methyl-piperazin-1-yl)-phenylamino]-thiazole-5-carbonyl}-2,4-dichloro-phenyl)-acetamide] | 4.92 | 22000 nM |  | 
2 | 8.44 | 6.32 | 6.44 | 4.82 | 25000 nM | 4.80 | 21000 nM | Nc1ccc(Cl)c(C(=O)c2sc(Nc3ccc(N4CCNCC4)cc3)nc2N)c1Cl [H(2), (3-Amino-2,6-dichloro-phenyl)-[4-amino-2-(4-piperazin-1-yl-phenylamino)-thiazol-5-yl]-methanone Trihydrochloride] | 4.89 | 22000 nM |  | 
3 | 7.79 | 7.40 | 7.40 | 6.06 | 2700 nM | 5.40 | 8000 nM | Nc1nc(Nc2ccc(S(N)(=O)=O)cc2)sc1C(=O)c1c(F)cccc1C(F)(F)F [C(99), 4-[4-Amino-5-(2-fluoro-6-trifluoromethyl-benzoyl)-thiazol-2-ylamino]-benzenesulfonamide] | 5.96 | 2900 nM |  | 
4 | 8.64 | 6.34 | 6.14 | 5.89 | 3000 nM | 5.46 | 5900 nM | Nc1nc(Nc2ccc(N3CCNCC3)cc2)sc1C(=O)c1c(Cl)cc(Cl)cc1Cl [J(1), [4-Amino-2-(4-piperazin-1-yl-phenylamino)-thiazol-5-yl]-(2,4,6-trichloro-phenyl)-methanone] | 6.00 | 5900 nM |  | 
5 | 7.64 | 8.00 | 7.47 | 5.25 | 12000 nM | 4.85 | 22000 nM | Cc1c(C(=O)c2sc(Nc3ccc(S(N)(=O)=O)cc3)nc2N)sc2ccccc12 [C(49), 4-[4-Amino-5-(3-methyl-benzo[b]thiophene-2-carbonyl)-thiazol-2-ylamino]-benzenesulfonamide] | 5.40 | 20000 nM |  | 
6 | 7.99 | 6.72 | 7.01 | 6.19 | 1400 nM | 5.62 | 5000 nM | CN1CCN(c2ccc(Nc3nc(N)c(C(=O)c4c(F)cccc4F)s3)cc2)CC1=O [C(118), 4-{4-[4-Amino-5-(2,6-difluoro-benzoyl)-thiazol-2-ylamino]-phenyl}-1-methyl-piperazin-2-one] | 6.03 | 1500 nM |  | 
7 | 8.20 | 6.48 | 6.12 | 6.15 | 1600 nM | 6.00 | 1800 nM | C[C@@H]1CN(c2ccc(Nc3nc(N)c(C(=O)c4c(F)cccc4F)s3)cc2)C[C@H](C)N1 [J(5), {4-Amino-2-[4-(cis-3,5-dimethyl-piperazin-1-yl)-phenylamino]-thiazol-5-yl}-(2,6-difluoro-phenyl)-methanone] | 6.05 | 1500 nM |  | 
8 | 7.60 | > 7.30 | 7.12 | 5.82 | 3000 nM | 5.41 | 5800 nM | Cc1cc([N+](=O)[O-])sc1C(=O)c1sc(Nc2ccc(S(N)(=O)=O)cc2)nc1N [C(95), 4-[4-Amino-5-(3-methyl-5-nitro-thiophene-2-carbonyl)-thiazol-2-ylamino]-benzenesulfonamide] | 5.74 | 4500 nM |  | 
9 | 8.15 | 6.51 | 6.63 | 5.00 | 25000 nM | 4.80 | > 25000 nM | Nc1nc(Nc2ccc3nc[nH]c3c2)sc1C(=O)c1c(Cl)cc(C(F)(F)F)cc1Cl [C(37), [4-Amino-2-(1H-benzoimidazol-6-ylamino)-thiazol-5-yl]-(2,6-dichloro-4-trifluoromethyl-phenyl)-methanone] | 4.85 | > 25000 nM | (80%) | (70%)
10 | 7.68 | 8.07 | 7.55 | 5.96 | 2800 nM | 5.52 | 5200 nM | CNS(=O)(=O)c1ccc(Nc2nc(N)c(C(=O)c3sccc3C)s2)cc1 [C(114), 4-[4-Amino-5-(3-methyl-thiophene-2-carbonyl)-thiazol-2-ylamino]-N-methyl-benzenesulfonamide] | 5.89 | 4800 nM |  | 
11 | 7.29 | 6.99 | 6.60 | 5.70 | 8000 nM | 5.26 | 12000 nM | Cc1ccsc1C(=O)c1sc(Nc2ccc(C(=O)C3COC(=O)[C@H]3N)cc2)nc1N (stereo partly drawn) [C(45), trans-3RS-Amino-4RS-{4-[4-amino-5-(3-methyl-thiophene-2-carbonyl)-thiazol-2-ylamino]-benzoyl}-dihydro-furan-2-one] | 5.70 | 10000 nM |  | 
12 | 8.62 | 6.39 | 6.33 | 6.06 | 2400 nM | 5.46 | 5800 nM | Nc1nc(Nc2ccc(N3CCNCC3)cc2)sc1C(=O)c1c(Cl)cccc1Cl [H(3), [4-Amino-2-(4-piperazin-1-yl-phenylamino)-thiazol-5-yl]-(2,6-dichloro-phenyl)-methanone] | 5.74 | 3000 nM |  | 
13 | 7.57 | 6.25 | 6.14 | 5.89 | 2900 nM | 5.62 | 5200 nM | CC(=O)N1CCN(c2ccc(Nc3nc(N)c(C(=O)c4sccc4C)s3)cc2)CC1 [C(98), 2-[4-(1-Acetyl-piperazine-4-yl)-phenylamino]-4-amino-thiazol-5-yl-(3-methyl-thiophen-2-yl)-methanone] | 5.57 | 5300 nM |  | 
14 | 7.68 | 7.31 | 7.77 | 5.96 | 2400 nM | 5.51 | 5400 nM | NC(=O)c1ccc(Nc2nc(N)c(C(=O)c3c(F)cccc3F)s2)cc1 [C(102), 4-[4-Amino-5-(2,6-difluoro-benzoyl)-thiazol-2-ylamino]-benzamide] | 6.06 | 2200 nM |  | 
